# Experimental data reported in patent publication US20210145802A1, “THERAPY FOR OPHTHALMOLOGICAL CONDITIONS” (WREN THERAPEUTICS LIMITED, priority 2018, published 2021).
# Columns and labels:
# [1] = test system: N2 healthy control worms; experiment: Automated motility assay, healthy worms; format: in vivo, C. elegans; conditions: same concentration range; compared with effect in Aβ worms
# Experimental: N2 C. elegans var. Bristol used as controls (also labelled “healthy”). Generation time is about 3 days. Brood size is about 350, wild type phenotype, sub-cultured in 1973 (S. Brenner, The genetics of Caenorhabditis elegans. Genetics. 77, 71-94 (1974)).
# Briefly, Netoglitazone stocks (5 mM in 100% DMSO) were used at an appropriate concentration to seed 9-cm NGM plates. Plates were then placed in a laminar flow hood at room temperature (22° C.) for up to 4 hours to dry. C. elegans cultures were then transferred onto media seeded with compound as L4 stage or Day 3 for late treatments and incubated at 24° for the whole experiment. […]
# All C. elegans populations were cultured at 20° C. and developmentally synchronized from a 4 h egg-lay. At 64-72 h post-egg-lay (time zero), individuals were transferred to FUDR plates, and body movements were assessed over the times indicated. At different ages, the animals were washed off the plates with M9 buffer and spread over an OP-50 unseeded 9 cm plate, after which their movements were recorded at 20 fps using a recently developed microscopic procedure (M. Perni et al., Massively parallel C. elegans tracking provides multi-dimensional fingerprints for phenotypic discovery. J. Neurosci. Methods. 306, 57-67 (2018)) for 1 min. Up to 600 animals were counted in each experiment in duplicate unless stated otherwise. […]
# [2] = target: A1340 (40-residue isoform of Aβ) (Homo sapiens, UniProt P05067); experiment: A1340 aggregation kinetics; conditions: 10 μM A1340; 1.25-fold excess
# [3] = target: T1, Aβ42 oligomers (Homo sapiens, UniProt P05067); experiment: ELISA with oligomer-specific antibody; format: biochemical; conditions: 5 μM Aβ42; 5-fold excess; at half-time of aggregation of Aβ42 alone
# T1 construct: […]; made in house; host or cells: E. coli BL21 Gold (DE3)
# Experimental: 20 μl Aliquots were taken at the t50 (i.e. half-time) from aggregation reactions of 5 μM Aβ42 in the absence and in the presence of 5-fold excess of Netoglitazone. Samples were then immobilised on a 96-well Maxisorp ELISA plate (Nunc, Roskilde, Denmark) with no shaking for 1 h at room temperature. The plate was then washed three times with 20 mM Tris pH 7.4, 100 mM NaCl and incubated in 20 mM Tris pH 7.4, 100 mM NaCl, 5% BSA under constant shaking overnight at 4° C. The day after the plate was washed six times with 20 mM Tris pH 7.4, 100 mM NaCl and then incubated with 30 μl solutions of 5 μM oligomer-specific antibody under constant shaking either for 1 hour or overnight at room temperature. At the end of this incubation, the plate was washed six times with 20 mM Tris pH 7.4, 100 mM NaCl and incubated with 30 μl solutions of Rabbit polyclonal to 6× His Tag® HRP conjugated (Abcam, Cambridge, UK) at a dilution of 1:4000 in 20 mM Tris pH 7.4, 100 mM NaCl, 5% BSA under shaking for 1 hour at room temperature. […] Finally, the amount of bound oligomer-specific antibody was quantified by using 1-Step™ Ultra TMB-ELISA Substrate Solution (ThermoFisher Scientific, Waltham, Mass., United States), according to manufacturer instructions, and measuring the absorbance at 450 nm by means of a CLARIOstar plate reader (BMG Labtech, Aylesbury, UK).
# [4] = target: T1, Aβ42 oligomers; experiment: Ca2+ influx assay (lipid vesicle disruption by aggregates); format: biochemical; conditions: 2 μM Aβ42; 5-fold excess added at 0 h; measured at 2 h
# Experimental: Single vesicles tethered to PLL-PEG coated borosilicate glass coverslides (VWR International, 22×22 mm, product number 63 1-0122) were placed on an oil immersion objective mounted on an inverted Olympus IX-71 microscope. Each coverslide was affixed at Frame-Seal incubation chambers and was incubated with 50 μL of HEPES buffer of pH 6.5. Just before the imaging, the HEPES buffer was replaced with 50 μL Ca^2+ containing buffer solution L-15. 16 (4×4) images of the coverslide were recorded under three different conditions (background, in the presence of Aβ42 and after addition of ionomycin (Cambridge Bioscience Ltd, Cambridge, UK), respectively). The distance between each field of view was set to 100 μm, and was automated (bean-shell script, Micromanager) to avoid any user bias. After each measurement the script allowed the stage (Prior H117, Rockland, Mass., USA) to move the field of view back to the start position such that identical fields of view could be acquired for the three different conditions. Images of the background were acquired in the presence of L15 buffer. For each field of view 50 images were taken with an exposure time of 50 ms. […] The recorded images were analysed using ImageJ to determine the fluorescence intensity of each spot under the three different conditions in the presence of an aggregation mixture incubated with and without Netoglitazone.
# T1 sequence (P05067 671-713): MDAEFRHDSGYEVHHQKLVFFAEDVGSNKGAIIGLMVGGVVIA
# Sequence of A1340 (40-residue isoform of Aβ) (P05067 672-711 limits assumed): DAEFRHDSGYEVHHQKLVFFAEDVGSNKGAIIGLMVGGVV
smiles,measurement,setting,value
O=C1NC(=O)C(Cc2ccc3cc(OCc4ccccc4F)ccc3c2)S1 (stereo not shown) [Netoglitazone],effect on mobility of healthy worms,[1],negligible
same,inhibition of A1340 aggregation,[2],able to inhibit A1340 aggregation
same,Aβ42 oligomer concentration (ELISA),[3],significant reduction
same,protection against vesicle disruption (Ca2+ influx) by Aβ42 species,[4],protected against the neurotoxic species-induced vesicle disruption
